Consider one compound from patent publication US20090069623A1, “METHODS AND COMPOSITIONS FOR TREATMENT OR PREVENTION OF RADIATION-INDUCED FIBROSIS” (Virginia Commonwealth University Intellectual Property …, priority 2007, published 2009).

Common to all, as to type: cell-based, human
Experiment [1] relates to CTGF, fibronectin (FN), collagen type IV (Col IV) mRNA. Put plainly: RT-PCR of mRNA expression in irradiated HFL-1 cells treated with simvastatin. The note with it: simvastatin pretreatment 6 hours, 10 Gy, 20 hours, FIG. 8A. Here is the method: (§1) For statin treatment experiments, cells were grown overnight in 35 mm plates (6-well plates were also used in some studies) to form a 75-80% confluent monolayer. The cells were then washed with PBS, and the media was changed to SFM (800 μL).
RT-PCR analysis of CTGF, COL-IV, FN and hβ2M. […] One microgram of purified total RNA was used for RT-PCR analysis using the ThermoScript RT-PCR System (Invitrogen, Inc.) according to the protocol of the manufacturer. The sequences of the forward and reverse primers are as follows: CTGF forward primer (SEQ ID NO 1) 5′-[…]-3′, CTGF reverse primer (SEQ ID NO 2) 5′-[…]-3′; COL-IV forward primer (SEQ ID NO 3) 5′-[…]-3′, COL-IV reverse primer (SEQ ID NO 4) 5′-[…]-3′; FN forward primer (SEQ ID NO 5) 5′-[…]-3′, FN reverse primer (SEQ ID NO 6) 5′-[…]-3′; hβ2M forward primer (SEQ ID NO 7) 5′-[…]-3′; hβ2M reverse primer (SEQ ID NO 8) 5′-[…]-3′. The CTGF PCR product is 242 bp in length, the COL-IV PCR product is 138 bp, the FN PCR product is 203 bp, and hβ2M PCR product is 278 bp. For PCR amplification, 25 cycles were performed for the amplification of CTGF, COL-IV, FN and hβ2M (denaturation: 94° C., 45 sec; annealing: 55° C., 45 sec; polymerization: 72° C., 1 min). Amplified products were separated by electrophoresis on a 1.0% agarose gel, and DNA was visualized by ethidium bromide staining.

For experiment [2], the system named is CTGF, fibronectin. Nature of the experiment: Western blot of HDF cells treated with TGF-β1 and simvastatin. The note with it: 10 ng/ml TGF-β1 plus simvastatin, three days, FIG. 10B. The method, then: (§2) Cell Culture and Treatment. Normal human fetal lung fibroblasts (HFL-1) were purchased from the American Type Culture Collection (ATCC Number: CCL-153) and cultured in Ham's F12K medium (American Type Culture Collection) supplemented with 2 mM L-glutamine adjusted to contain 1.5 g/L sodium bicarbonate and 10% fetal bovine serum. Cells were maintained in humidified 5% CO2 at 37° C. Human dermal fibroblasts (HDF), derived from the dermis of normal human adult skin, were purchased from Invitrogen, Inc. and cultured in Medium-106 (Invitrogen, Inc., Catalogue No. M-106-500) containing LSGS Kit (Invitrogen, Inc., Catalogue No. S-003-K) prior to use. […]
(§3) Harvesting Culture Media and Cell Lystates. For analysis of extracellular CTGF, fibronectin, and α-tubulin, cell culture media was collected, centrifuged to remove cellular debris, aliquoted, and frozen at −70° C. until ready for use. […]
(§4) Western blot analysis of HFL-1 whole cell proteins. […] After washing the blot, the antibodies were detected by the enhanced chemiluminescence method (PerkinElmer Life Sciences Inc.).
(§5) The separated proteins were then transferred to nitrocellulose, and Western immunoblotting was performed with antibodies specific for CTGF, fibronectin, and α-tubulin. […] As a control for protein loading, α-tubulin expression in HFL-1 cells was also determined.
For orientation: A western blot detects proteins with antibodies after separation by electrophoresis.

Experiment [3] has as its system CTGF, fibronectin. Nature of the experiment: Western blot of irradiated HFL-1 cells treated with HMG-CoA inhibitors. The note with it: simvastatin pretreatment 6 hours, 5 Gy, three days, FIG. 8B. Here is the method:
as §1
Harvesting Culture Media and Cell Lystates. For analysis of extracellular CTGF, fibronectin, and α-tubulin, cell culture media was collected, centrifuged to remove cellular debris, aliquoted, and frozen at −70° C. until ready for use. For analysis of intracellular CTGF, fibronectin, and α-tubulin, cell lysates were harvested using 200 μL of HBSST lysis buffer (HBSS containing 1 mM MgSO4, 1 mM CaCl2, 4 mM NaHCO3, 0.5% Triton X-100, protease inhibitor cocktail). Cellular debris was removed by centrifugation.
Western blot analysis of HFL-1 whole cell proteins. […] Primary antibodies for CTGF and fibronectin were diluted at 1:600 and were incubated at 4° C. overnight with shaking. Primary antibodies for α-tubulin were diluted at 1:4,000 and were incubated at 4° C. overnight with shaking. Corresponding secondary antibodies were diluted at 1:6,000 and were incubated at room temperature for 1 hour with shaking. After washing the blot, the antibodies were detected by the enhanced chemiluminescence method (PerkinElmer Life Sciences Inc.).
Cells were harvested, and cell lysates were separated by SDS-PAGE. The separated proteins were then transferred to nitrocellulose, and Western immunoblotting was performed with antibodies specific for CTGF, fibronectin, and α-tubulin. […] As a control for protein loading, α-tubulin expression in HFL-1 cells was also determined.
Cells were harvested, and cell lysates were separated by SDS-PAGE. The separated proteins were then transferred to nitrocellulose, and Western immunoblotting was performed with antibodies specific for CTGF, fibronectin, and α-tubulin. FIG. 8C is a Western blot of HFL-1 cells exposed to radiation and treated with HMG-CoA inhibitors.

The test system of experiment [4] is CTGF, fibronectin (FN), collagen type IV (Col IV) mRNA. Nature of the experiment: RT-PCR of TGF-β1-induced mRNA expression in HDF cells treated with simvastatin. To be noted: 10 ng/ml TGF-β1 for 20 hours, FIG. 10A. The method, then:
Cell Culture and Treatment. Normal human fetal lung fibroblasts (HFL-1) were purchased from the American Type Culture Collection (ATCC Number: CCL-153) and cultured in Ham's F12K medium (American Type Culture Collection) supplemented with 2 mM L-glutamine adjusted to contain 1.5 g/L sodium bicarbonate and 10% fetal bovine serum. Cells were maintained in humidified 5% CO2 at 37° C. Human dermal fibroblasts (HDF), derived from the dermis of normal human adult skin, were purchased from Invitrogen, Inc. and cultured in Medium-106 (Invitrogen, Inc., Catalogue No. M-106-500) containing LSGS Kit (Invitrogen, Inc., Catalogue No. S-003-K) prior to use. After reaching 75-80% confluence, the medium was changed to serum free medium (SFM) for irradiation with different dose 1Gy, 2.5Gy, 5Gy, 7.5Gy and 10 Gy by using ^137Se. Alternatively, cells were treated with 5 ng/ml TGF-β1 (Sigma-Aldrich, Inc., Catalogue No. T7039) to stimulate CTGF production. The cells were then kept for 3 days in humidified 5% CO2 at 37° C. and subjected to Western immunoblot.^1 ^1What are the culture conditions (e.g., media) for M12 cells used in FIG. 3?
RT-PCR analysis of CTGF, COL-IV, FN and hβ2M. […]
The ability of statins to inhibit TGF-β1-mediated induction of CTGF, fibronectin, and collagen type IV was assessed in HDF cells. […]

Experiment [5] deals with CTGF, fibronectin. Nature of the experiment: Western blot of HFL-1 cells treated with TGF-β1 and simvastatin. The note with it: TGF-β1 plus simvastatin, three days, FIG. 7B. Here is the method: as §2, §3, §4, §5

With `CCC(C)(C)C(=O)O[C@H]1C[C@@H](C)C=C2C=C[C@H](C)[C@H](CC[C@@H]3C[C@@H](O)CC(=O)O3)[C@H]21` [simvastatin, 2,2-dimethyl-butanoic acid(1S,3R,7S,8S,8aR)-1,2,3,7,8,8a-hexahydro-3,7-dimethyl-8-[2-[(2R,4R)-tetrahydro-4-hydroxy-6-oxo-2H-pyran-2-yl]ethyl]-1-naphthalenylester], the “expression of CTGF, FN, and Col-IV mRNA” value in experiment [1] is “decrease in the expression of CTGF, FN, and Col-IV mRNA”. Further, the fibronectin protein expression result in the experiment on CTGF, fibronectin [2] is reported as “decrease in protein expression of fibronectin”; in the experiment on CTGF, fibronectin [3], “decrease in protein expression or fibronectin”; in the experiment on CTGF, fibronectin [5], “decrease in protein expression or fibronectin”. Also, the “CTGF, FN, and Col IV mRNA expression” value is “reduction in CTGF, FN, and Col IV mRNA expression” in experiment [4] (0.1 μM simvastatin); “reduction in CTGF, FN, and Col IV mRNA expression became more pronounced” in experiment [4] (increasing concentration of simvastatin).
